Measured values: patent publication US8637496B2, “Compounds having a monogalactosyldiacylglycerol synthase inhibitory activity as herbicide or algaecide, herbicide and algaecide compositions” (Commissariat a l'Energie Atomique, priority 2007, dated 2014)
Structures can show the parent of a compound that is named as a salt.

Target: T1, MGDG synthase in isolated spinach chloroplast envelope membranes (Spinacia oleracea, UniProt Q9SM44)
T1 construct: envelope membranes purified from the lysate by sucrose centrifugation gradient; from tissue; host or cells: envelope membranes of chloroplasts from spinach leaves
T1 sequence (Q9SM44 99-522): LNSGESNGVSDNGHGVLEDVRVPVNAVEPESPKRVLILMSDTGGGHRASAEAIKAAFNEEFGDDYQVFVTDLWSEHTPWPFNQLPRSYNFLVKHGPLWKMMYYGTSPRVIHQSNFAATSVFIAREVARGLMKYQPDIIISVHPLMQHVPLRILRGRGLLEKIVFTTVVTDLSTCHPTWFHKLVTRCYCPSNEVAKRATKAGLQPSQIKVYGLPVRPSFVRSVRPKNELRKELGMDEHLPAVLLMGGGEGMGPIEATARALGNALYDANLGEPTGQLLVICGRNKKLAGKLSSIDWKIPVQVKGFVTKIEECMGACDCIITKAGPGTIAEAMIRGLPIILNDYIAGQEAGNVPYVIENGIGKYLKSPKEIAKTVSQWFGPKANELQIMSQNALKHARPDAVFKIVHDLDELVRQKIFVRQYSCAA
Test: MGDG synthase activity in envelope membrane fractions isolated from spinach chloroplasts
Assay type: biochemical
Conditions: Table 1, obtained in the same manner as FIG. 4; read-out: Inhibitory effect on MGDG synthesis in isolated spinach chloroplast envelope membranes
From the text: All the operations have been carried out as described in the article by Maréchal, E. et al., J. Biol. Chem., 1995, 270, 5714-5722. Crude chloroplasts were obtained from 3-4 kg of spinach leaves and purified by isopycnic centrifugation using Percoll gradients. Purified intact chloroplasts have then been lysed in hypotonic medium and envelope membranes purified from the lysate by sucrose centrifugation gradient as described in the article by Douce, R. and Joyard, J., (1982) in Methods in Chloroplast Molecular Biology (Edelman, M., Hallick R and Chua N H eds), pp 239-256, Elsevier Science Publishers B.V. Amsterdam.
MGDG synthase activity was assayed as described in the article by Maréchal et al. (1995).

Row | SMILES | IC50
1 | C[C@@H](COC(=O)N1CCC(n2cnc3ccccc32)CC1)N(Cc1ccccc1)Cc1ccccc1 [Compound 1, (S)-2-(dibenzylamino)propyl 4-(1H-benzo[d]imidazol-1-yl)piperidine-1-carboxylate] | 100 to 500 µM
2 | CN(CCOC(=O)N1CCC(n2c(=O)[nH]c3ccccc32)CC1)Cc1ccccc1 [Compound 9, 2-(N-benzyl-N-methylamino)ethyl 4-(1,2-dihydro-2-oxobenzo[d]imidazol-3-yl)piperidine-1-carboxylate] | 100 to 500 µM
3 | O=C(OCCCN(Cc1ccccc1)Cc1ccccc1)N1CCC(n2c(=O)[nH]c3ccccc32)CC1 [Compound 10, 3-(dibenzylamino)propyl 4-(1,2-dihydro-2-oxobenzo[d]imidazol-3-yl)piperidine-1-carboxylate] | 45 µM
4 | O=C(OCCC(c1ccccc1)c1ccccc1)N1CCC(n2c(=O)[nH]c3ccccc32)CC1 [Compound 12, 3,3-diphenylpropyl 4-(1,2-dihydro-2-oxobenzo[d]imidazol-3-yl)piperidine-1-carboxylate] | 45 µM
5 | O=C(OCCN1C(=O)c2ccccc2C1=O)N1CCC(n2c(=O)[nH]c3ccccc32)CC1 [Compound 15, 2-(1,3-dioxoisoindolin-2-yl)ethyl 4-(1,2-dihydro-2-oxobenzo[d]imidazol-3-yl)piperidine-1-carboxylate] | 45 µM
6 | CCN(CCOC(=O)N1CCC(n2c(=O)[nH]c3ccccc32)CC1)c1ccccc1 [Compound 17, 2-(ethyl(phenyl)amino)ethyl 4-(2-oxo-2,3-dihydro-1H-benzo[d]imidazol-1-yl)piperidine-1-carboxylate] | 200 µM
7 | O=C(OCC(c1ccccc1)c1ccccc1)N1CCC(n2c(=O)[nH]c3ccccc32)CC1 [Compound 18, 2,2-diphenylethyl 4-(1,2-dihydro-2-oxobenzo[d]imidazol-3-yl)piperidine-1-carboxylate] | 50 µM
8 | O=c1[nH]c2ccccc2n1C1CCN(C(=S)OCCN(Cc2ccccc2)Cc2ccccc2)CC1 [Compound 19, O-2-(dibenzylamino)ethyl 4-(1,2-dihydro-2-oxobenzo[d]imidazol-3-yl)piperidine-1-carbothioate] | 20 µM
9 | C[C@@H](COC(=O)N1CCC(n2c(=O)n(C(=O)c3ccccc3)c3ccccc32)CC1)N(Cc1ccccc1)Cc1ccccc1 [Compound 21, (S)-2-(dibenzylamino)propyl 4-(1,2-dihydro-2-oxo-1-(benzoyl)benzo[d]imidazol-3-yl)piperidine-1-carboxylate] | 50 µM
10 | Cn1c(=O)n(C2CCN(C(=O)OC[C@H](Cc3ccccc3)N(Cc3ccccc3)Cc3ccccc3)CC2)c2ccccc21 [Compound 22, (S)-2-(dibenzylamino)-3-phenylpropyl 4-(1,2-dihydro-1-methyl-2-oxobenzo[d]imidazol-3-yl)piperidine-1-carboxylate] | 75 µM
11 | C[C@@H](CNC(=S)N1CCC(n2c(=O)[nH]c3ccccc32)CC1)N(Cc1ccccc1)Cc1ccccc1 [Compound 23, N—((S)-2-(dibenzylamino)propyl)-4-(1,2-dihydro-2-oxobenzo[d]imidazol-3-yl)piperidine-1-carbothioamide] | 50 µM
12 | O=C(CCCN(Cc1ccccc1)Cc1ccccc1)N1CCC(n2c(=O)[nH]c3ccccc32)CC1 [Compound 24, 1-[1-(4-Dibenzylamino-butyryl)-piperidin-4-yl]-1,3-dihydro-benzoimidazol-2-one] | 25 µM
13 | C[C@@H](COC(=O)Nc1ccc(-n2c(=O)[nH]c3ccccc32)cc1)N(Cc1ccccc1)Cc1ccccc1 [Compound 27, 2-(dibenzylamino)propyl 4-(1,2-dihydro-2-oxobenzo[d]imidazol-3-yl)phenylcarbamate] | 45 µM
14 | O=C(OCCN(Cc1ccccc1)Cc1ccc([N+](=O)[O-])cc1)N1CCC(n2c(=O)[nH]c3ccccc32)CC1 [Compound 28, 2-(N-(4-nitrobenzyl)-N-benzylamino)ethyl 4-(1,2-dihydro-2-oxobenzo[d]imidazol-3-yl)piperidine-1-carboxylate] | 20 µM
15 | CC(C)C[C@@H](COC(=O)N1CCC(n2c(=O)[nH]c3ccccc32)CC1)N(Cc1ccccc1)Cc1ccccc1 [Compound 30, (S)-2-(dibenzylamino)-4-methylpentyl 4-(2-oxo-2,3-dihydro-1H-benzo[d]imidazol-1-yl)piperidine-1-carboxylate] | 12 µM
16 | CC(C)(COC(=O)N1CCC(n2c(=O)[nH]c3ccccc32)CC1)N(Cc1ccccc1)Cc1ccccc1 [Compound 33, 2-(dibenzylamino)-2-methylpropyl 4-(1,2-dihydro-2-oxobenzo[d]imidazol-3-yl)piperidine-1-carboxylate] | 50 µM
17 | O=C(OC[C@H](c1ccccc1)N(Cc1ccccc1)Cc1ccccc1)N1CCC(n2c(=O)[nH]c3ccccc32)CC1 [Compound 34, (S)-2-(dibenzylamino)-2-phenylethyl 4-(1,2-dihydro-2-oxobenzo[d]imidazol-3-yl)piperidine-1-carboxylate] | 40 µM
18 | O=C(OCCN(Cc1ccccc1)c1ccccc1)N1CCC(n2c(=O)[nH]c3ccccc32)CC1 [Compound 35, 2-(N-benzyl-N-phenylamino)ethyl 4-(1,2-dihydro-2-oxobenzo[d]imidazol-3-yl)piperidine-1-carboxylate] | 40 µM
19 | O=C(OCCCN(Cc1ccccc1)Cc1ccc([N+](=O)[O-])cc1)N1CCC(n2c(=O)[nH]c3ccccc32)CC1 [Compound 38, 3-(benzyl(4-nitrobenzyl)amino)propyl 4-(2-oxo-2,3-dihydro-1H-benzo[d]imidazol-1-yl)piperidine-1-carboxylate hydrochloride] | 15 µM
20 | O=C(OCCN(Cc1ccccc1)Cc1ccc(Br)cc1)N1CCC(n2c(=O)[nH]c3ccccc32)CC1 [Compound 40, 2-(benzyl(4-bromobenzyl)amino)ethyl 4-(2-oxo-2,3-dihydro-1H-benzo[d]imidazol-1-yl)piperidine-1-carboxylate hydrochloride] | 15 µM

Results, then the compound that gave them:

Row | IC50 | SMILES
21 | 100 to 500 µM | C[C@@H](COC(=O)N1CCC(n2c(=O)[nH]c3ncccc32)CC1)N(Cc1ccccc1)Cc1ccccc1 [Compound 2, (S)-2-(dibenzylamino)propyl 4-(2,3-dihydro-2-oxoimidazo[4,5-b]pyridin-1-yl)piperidine-1-carboxylate]
22 | 200 µM | C[C@@H](COC(=O)N1CCCC(n2c(=O)[nH]c3ccccc32)CC1)N(Cc1ccccc1)Cc1ccccc1 (stereo partly drawn) [Compound 4, (S)-2-(dibenzylamino)propyl 4-(1,2-dihydro-2-oxobenzo[d]imidazol-3-yl)azepane-1-carboxylate]
23 | 50 µM | C[C@@H](COC(=O)N1CCC(n2c(=O)[nH]c3ccccc32)C1)N(Cc1ccccc1)Cc1ccccc1 (stereo partly drawn) [Compound 6, (S)-2-(dibenzylamino)propyl 3-(1,2-dihydro-2-oxobenzo[d]imidazol-3-yl)pyrrolidine-1-carboxylate]
24 | 100 to 500 µM | C[C@@H](COC(=O)N1CCC(n2c(=S)[nH]c3ccccc32)CC1)N(Cc1ccccc1)Cc1ccccc1 [Compound 25, (S)-2-(dibenzylamino)propyl 4-(1,2-dihydro-2-thioxobenzo[d]imidazol-3-yl)piperidine-1-carboxylate]
25 | 8 µM | CC(C)[C@@H](COC(=O)N1CCC(n2c(=O)[nH]c3ccccc32)CC1)N(Cc1ccccc1)Cc1ccccc1 [Compound 29, (S)-2-(dibenzylamino)-3-methylbutyl 4-(1,2-dihydro-2-oxobenzo[d]imidazol-3-yl)piperidine-1-carboxylate]
26 | 50 µM | CC(C)(C)C(COC(=O)N1CCC(n2c(=O)[nH]c3ccccc32)CC1)N(Cc1ccccc1)Cc1ccccc1 (stereo not drawn) [Compound 31, 2-(dibenzylamino)-3,3-dimethylbutyl 4-(1,2-dihydro-2-oxobenzo[d]imidazol-3-yl)piperidine-1-carboxylate]
27 | 35 µM | CC(CCOC(=O)N1CCC(n2c(=O)[nH]c3ccccc32)CC1)N(Cc1ccccc1)Cc1ccccc1 (stereo not drawn) [Compound 32, 3-(dibenzylamino)butyl 4-(1,2-dihydro-2-oxobenzo[d]imidazol-3-yl)piperidine-1-carboxylate]
28 | 50 µM | C[C@@H](COC(=O)N1CCC(n2c(=O)[nH]c3ccccc32)CC1)N(Cc1ccccc1)Cc1ccc([N+](=O)[O-])cc1 [Compound 36, (S)-2-(benzyl(4-nitrobenzyl)amino)propyl 4-(2-oxo-2,3-dihydro-1H-benzo[d]imidazol-1-yl)piperidine-1-carboxylate hydrochloride]
29 | 60 µM | COc1ccc(CN(Cc2ccccc2)[C@@H](C)COC(=O)N2CCC(n3c(=O)[nH]c4ccccc43)CC2)cc1 [Compound 39, (S)-2-(benzyl(4-methoxybenzyl)amino)propyl 4-(2-oxo-2,3-dihydro-1H-benzo[d]imidazol-1-yl)piperidine-1-carboxylate hydrochloride]
30 | 50 µM | C[C@@H](COC(=O)N1CCC(n2c(=O)[nH]c3ccccc32)CC1)N(Cc1ccccc1)Cc1ccc(Br)cc1 [Compound 41, (S)-2-(benzyl(4-bromobenzyl)amino)propyl 4-(2-oxo-2,3-dihydro-1H-benzo[d]imidazol-1-yl)piperidine-1-carboxylate hydrochloride]
